The test system of the test is CSM14.1 cells, thapsigargin, phospho-p38 Western blot. Put plainly: inhibition of thapsigargin-induced p38 phosphorylation, late-stage follow-up, mechanism study for ER stress cell death project, CSM14.1 cells, Western blot (AID 1358).

Active and inactive are the calls of the source.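 How the source made its calls: active means no phosphorylated p38 MAPK band on western blot after an ER stress trigger, matching the untreated control; inactive means the rest.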

In the case of `COc1ccc(C2CC(=O)C3=C(C2)Nc2ccccc2NC3c2cccc(Oc3ccccc3)c2)cc1OC` (stereo unspecified), the outcome was active.

Consider `COc1ccc(C2CC(=O)C3=C(C2)Nc2ccccc2NC3c2cccc(Br)c2)cc1OC` (stereo unspecified), for which the result was active.

Take `O=C1CC(c2ccccc2)CC2=C1C(c1c(F)cccc1Cl)Nc1ccccc1N2` (stereo unspecified): the outcome was active.

As to `CCOc1cccc(C2Nc3ccccc3NC3=C2C(=O)CC(c2ccc(OC)cc2)C3)c1` (stereo unspecified), the result was active.

As for `CCOc1cc(C2Nc3ccccc3NC3=C2C(=O)CC(c2ccc(OC)cc2)C3)cc(Cl)c1O` (stereo unspecified), the result was active.

On to `COc1ccc(C2CC(=O)C3=C(C2)Nc2ccccc2NC3c2cc(C)ccc2C)cc1` (stereo unspecified), for which the outcome was active.

In the case of `COc1ccc(C2CC(=O)C3=C(C2)Nc2ccccc2NC3c2cccc(C(F)(F)F)c2)cc1OC` (stereo unspecified), the result was active.

For `CSc1ccc(C2Nc3ccccc3NC3=C2C(=O)CC(c2ccccc2)C3)cc1` (stereo unspecified), the result was active.

Turning to `CC1(C)CC(=O)C2=C(C1)Nc1ccccc1NC2c1ccc(-c2ccccc2)cc1` (stereo unspecified), the result was active.

As for `CCCOc1ccc(C2Nc3ccccc3NC3=C2C(=O)CC(c2ccc(OC)c(OC)c2)C3)cc1` (stereo unspecified), the result was active.

For `COc1ccc(C2CC(=O)C3=C(C2)Nc2ccccc2NC3c2ccccc2C(F)(F)F)cc1OC` (stereo unspecified), the result was active.

Source of the values: PubChem BioAssay AID1358 (Sanford-Burnham Center for Chemical Genomics, 2008).
